Laboratory results taken from PMC12298648, “An Evaluation of the Cytotoxicity and Safety Profile of Usnic Acid for a Broad Panel of Human Cancers and Normal Cells with Respect to Its Enantiospecificity” (Molecules, 2025).
Values after ≈ are worked out from the molar mass of the structure shown. Read-outs that look alike come from different tables or passages of the source.

Columns and labels:
[1] = system: SH-SY5Y; assay: MTT viability assay, neuroblastoma SH-SY5Y cells; assay type: cell-based, human; details: SHSY5Y, 24 h
Source text: (§1) Cell lines of different origins were used in the study and grouped as follows: prostate panel (human prostate carcinomas: DU145, derived from metastatic site: brain; grade IV PC3, derived from metastatic site: bone; LNCaP, derived from the metastatic site: lymph node; prostate epithelial, PNT2), colon panel (colorectal adenocarcinomas: HT29, originating from a primary tumor; Duke’s type C DLD-1, with the potential to lymph node metastasis; highly metastatic HCT116; colon epithelial cells CCD 841 CoN), thyroid panel (follicular thyroid carcinoma FTC133, anaplastic thyroid carcinoma 8505C, papillary thyroid carcinoma TPC-1, normal thyroid follicular epithelial Nthy-ori 3–1), breast panel (ER-positive breast adenocarcinoma MCF7, ER-negative breast adenocarcinoma MDA-MB-231, breast epithelial MCF10A), brain panel (neuroblastoma SH-SY5Y, glioblastoma U-87 MG, murine astrocytes C8D1A). All cell lines were purchased from Merck (Darmstadt, Germany).
(§2) Cells were grown under standard conditions (37 °C, 5% CO2) and culture media (DMEM/F12 for PNT2, PC3, FTC133, 8505 C, MDA-MB-231, TPC-1; DMEM Low Glucose for DU145; DMEM High Glucose for HCT116, DLD-1, SH-SY5Y, U87MG, C8D1A; MEM with NEAA for MCF7; MEM for CCD 841 CoN; McCoy’s for HT29; RPMI1640 with sodium pyruvate for LNCaP; DMEM/F12 with 20 ng/mL epidermal growth factor (EGF), 10 μg/mL insulin, 0.5 μg/mL hydrocortisone, 100 ng/mL cholera toxin) for MCF10A), supplemented with 10% fetal bovine serum (FBS) or 5% donor horse serum for MCF10A, and 1% antibiotics solution (10,000 U penicillin and 10 mg streptomycin/mL). The tested substances were prepared as 10 mg/mL stock solutions in DMSO and further diluted in the culture media to the working concentrations. Cells were treated with UA enantiomers at the concentration range of 0–50 µg/mL. The influence of DMSO on cell viability was also examined, with the final concentration […], and no toxic effect was noted.
(§3) The cells were seeded onto 96-well plates at a density of 1.5 × 10^4 cells/well. After 24 h UA enantiomers were added. Cell viability was determined after 24, 48, and 72 h by the MTT assay, as described previously. Doxorubicin was used as a reference cytostatic drug. All analyses were performed in triplicate; cell viability was expressed as % of control, untreated cells (mean ± SD), and IC50 values (concentration at which cell viability is inhibited by 50%), if possible.

[2] = system: MDA-MB-231; assay: MTT viability assay, MDA-MB-231 breast cancer cells; assay type: cell-based, human; details: for IC50: Homo sapiens; for Cell viability: MDA-MB-231, 24 h
Source text: as §1, §2, §3
(§4) The selectivity index (SI) was calculated, if possible, by dividing the IC50 value obtained for non-cancerous cells line by the IC50 values obtained for appropriate cancer cell line, as described previously. […] The values above 3 indicate good selectivity.

[3] = system: CCD 841 CoN; assay: MTT viability assay, normal colon epithelial cells; assay type: cell-based, human; details: for Cell viability: CCD 841 CoN, 24 h; for IC50: Homo sapiens, CCD-841CoN
Source text: as §1, §2, §3

[4] = system: DLD-1; assay: MTT viability assay, DLD-1 colon cancer cells; assay type: cell-based, human; details: for Cell viability: DLD-1, 24 h; for IC50: Homo sapiens
Source text: as §1, §2, §3

[5] = system: HT29 cells; details: cited from earlier work
[6] = system: Nthy ori 3-1; assay: MTT viability assay, normal thyroid follicular epithelial cells; assay type: cell-based, human; details: for IC50: Homo sapiens; for Cell viability: Nthy ori 3-1, 24 h
Source text: as §1, §2, §3

[7] = system: DU145 cells; details: cited from earlier work
[8] = system: FTC133; assay: MTT viability assay, FTC133 follicular thyroid carcinoma cells; assay type: cell-based, human; details: for Cell viability: FTC-133, 24 h; for IC50: Homo sapiens, FTC-133
Source text: as §1, §2, §3, §4

[9] = system: HCT116; assay: MTT viability assay, HCT116 colon cancer cells; assay type: cell-based, human; details: for Cell viability: HCT116, 24 h; for IC50: Homo sapiens, HCT-116
Source text: as §1, §2, §3

[10] = system: PC3; assay: MTT viability assay, PC3 prostate cancer cells; assay type: cell-based, human; details: for IC50: Homo sapiens, PC-3; for Cell viability: PC3, 24 h
Source text: as §1, §2, §3, §4

With `CC(=O)C1=C(O)C=C2Oc3c(C(C)=O)c(O)c(C)c(O)c3[C@@]2(C)C1=O` [UA(+), (+)-usnic acid] the Cell viability ([1]; 2.5 µg/mL) was 99.49 % of control, the Cell viability ([1]; 5 µg/mL) was 97.56 % of control and the Cell viability ([1]; 10 µg/mL) was 97.95 % of control. For the same compound, the Cell viability ([1]; 20 µg/mL) was 96.15 % of control, the Cell viability ([1]; 30 µg/mL) was 95.77 % of control and the Cell viability ([1]; 40 µg/mL) was 92.95 % of control. For the same compound, the Cell viability ([1]; 50 µg/mL) was 96.54 % of control, the IC50 ([2]; MDA-MB-231, 48 h) was > 50 µg/mL and the IC50 ([2]; MDA-MB-231, 72 h) was 15.8 µg/mL (≈ 45.9 µM). For the same compound, the “selectivity index (SI)” value ([2]; IC50 MCF10A / IC50 MDA-MB-231, 72 h) was 2.83, the Cell viability ([2]; 2.5 µg/mL) was 100.36 % of control and the Cell viability ([2]; 5 µg/mL) was 95.55 % of control. For the same compound, the Cell viability ([2]; 10 µg/mL) was 87.62 % of control, the Cell viability ([2]; 20 µg/mL) was 81.99 % of control and the Cell viability ([2]; 30 µg/mL) was 77.62 % of control. For the same compound, the Cell viability ([2]; 40 µg/mL) was 67.93 % of control, the Cell viability ([2]; 50 µg/mL) was 69.24 % of control and the Cell viability ([3]; 2.5 µg/mL) was 104.22 % of control. The Cell viability ([3]; 5 µg/mL) was 103.61 % of control, the Cell viability ([3]; 10 µg/mL) was 99.72 % of control and the Cell viability ([3]; 20 µg/mL) was 111.77 % of control. For the same compound, the Cell viability ([3]; 30 µg/mL) was 101.26 % of control, the Cell viability ([3]; 40 µg/mL) was 95.35 % of control and the Cell viability ([3]; 50 µg/mL) was 96.52 % of control. For the same compound, the IC50 ([3]; 48 h) was > 50 µg/mL, the IC50 ([3]; 72 h) was > 50 µg/mL and the Cell viability ([4]; 2.5 µg/mL) was 96.51 % of control. The Cell viability ([4]; 5 µg/mL) was 89.29 % of control, the Cell viability ([4]; 10 µg/mL) was 75.63 % of control and the Cell viability ([4]; 20 µg/mL) was 82.11 % of control. For the same compound, the Cell viability ([4]; 30 µg/mL) was 71.08 % of control, the Cell viability ([4]; 40 µg/mL) was 68.28 % of control and the Cell viability ([4]; 50 µg/mL) was 68.46 % of control. For the same compound, the IC50 ([4]; DLD-1, 48 h) was 26.1 µg/mL (≈ 75.8 µM), the IC50 ([4]; DLD-1, 72 h) was 19.6 µg/mL (≈ 56.9 µM) and the IC50 ([5]; HT29, recalculated from µM by the authors, ref 21) was 24.1 µg/mL. For the same compound, the IC50 ([5]; HT29, recalculated from µM by the authors, ref 22) was 34.3 µg/mL, the IC50 ([5]; HT29, ref 21, read-out: IC50) was 70 µM and the IC50 ([5]; HT29, ref 22, read-out: IC50) was 99.7 µM. The IC50 ([6]; Nthy-ori 3-1, 48 h) was > 50 µg/mL, the IC50 ([6]; Nthy-ori 3-1, 72 h) was 33.2 µg/mL (≈ 96.4 µM) and the Cell viability ([6]; 2.5 µg/mL) was 97.57 % of control. The Cell viability ([6]; 5 µg/mL) was 100.56 % of control, the Cell viability ([6]; 10 µg/mL) was 95.69 % of control and the Cell viability ([6]; 20 µg/mL) was 93.96 % of control. The Cell viability ([6]; 30 µg/mL) was 94.51 % of control, the Cell viability ([6]; 40 µg/mL) was 97.29 % of control and the Cell viability ([6]; 50 µg/mL) was 97.71 % of control. The IC50 ([7]; DU145, 48 h, recalculated from µM by the authors) was 14.5 µg/mL, the IC50 ([7]; DU145, 48 h, read-out: IC50) was 42.1 µM and the IC50 ([7]; DU145, 72 h, recalculated from µM by the authors) was 19.7 µg/mL. The IC50 ([7]; DU145, 72 h, read-out: IC50) was 57.4 µM, the Cell viability ([8]; 2.5 µg/mL) was 92.33 % of control and the Cell viability ([8]; 5 µg/mL) was 89.00 % of control. The Cell viability ([8]; 10 µg/mL) was 89.83 % of control, the Cell viability ([8]; 20 µg/mL) was 93.83 % of control and the Cell viability ([8]; 30 µg/mL) was 74.75 % of control. For the same compound, the Cell viability ([8]; 40 µg/mL) was 75.75 % of control, the Cell viability ([8]; 50 µg/mL) was 78.08 % of control and the IC50 ([8]; FTC133, 48 h) was > 50 µg/mL. The IC50 ([8]; FTC133, 72 h) was 35.1 µg/mL (≈ 102 µM), the “selectivity index (SI)” value ([8]; IC50 Nthy ori 3-1 / IC50 FTC133, 72 h) was 0.95 and the Cell viability ([9]; 2.5 µg/mL) was 100.35 % of control. For the same compound, the Cell viability ([9]; 5 µg/mL) was 103.97 % of control, the Cell viability ([9]; 10 µg/mL) was 85.60 % of control and the Cell viability ([9]; 20 µg/mL) was 71.99 % of control. For the same compound, the Cell viability ([9]; 30 µg/mL) was 68.16 % of control, the Cell viability ([9]; 40 µg/mL) was 67.02 % of control and the Cell viability ([9]; 50 µg/mL) was 61.49 % of control. It also gave an IC50 ([9]; HCT116, 48 h) of 26.4 µg/mL (≈ 76.7 µM), an IC50 ([9]; HCT116, 72 h) of 10.5 µg/mL (≈ 30.5 µM) and an IC50 ([10]; PC3, 48 h) of 39.6 µg/mL (≈ 115 µM). The IC50 ([10]; PC3, 72 h) was 19.1 µg/mL (≈ 55.5 µM), the “selectivity index (SI)” value ([10]; IC50 PNT2 / IC50 PC3, 48 h) was 0.94 and the “selectivity index (SI)” value ([10]; IC50 PNT2 / IC50 PC3, 72 h) was 1.07. For the same compound, the Cell viability ([10]; 2.5 µg/mL) was 100.80 % of control, the Cell viability ([10]; 5 µg/mL) was 99.30 % of control and the Cell viability ([10]; 10 µg/mL) was 104.63 % of control. For the same compound, the Cell viability ([10]; 20 µg/mL) was 96.62 % of control, the Cell viability ([10]; 30 µg/mL) was 83.08 % of control and the Cell viability ([10]; 40 µg/mL) was 70.10 % of control. The Cell viability ([10]; 50 µg/mL) was 64.83 % of control.
